PMC2781006 (Virology Journal, 2009)
Like-named read-outs stand apart in the source and are kept apart here.

Legend:
Nipah virus [1] = assay: microbe, parasite or virus in culture; assay type: cell-based; details: read-out: NiV IC50
Hendra virus = assay: microbe, parasite or virus in culture; assay type: cell-based; details: read-out: HeV IC50
pseudotyped Nipah (pNiV) = assay: microbe, parasite or virus in culture; assay type: cell-based, Nipah virus; details: read-out: pNiV IC50
[2] = test system: pseudotyped Hendra (pHeV); assay: microbe, parasite or virus in culture; assay type: cell-based, Hendra virus; details: read-out: pHeV IC50
VSV (pVSV) = assay: microbe, parasite or virus in culture; assay type: cell-based, vesicular stomatitis virus; details: read-out: pVSV IC50
[3] = test system: human parainfluenza virus type 3 (HPIV3); assay: microbe, parasite or virus in culture; assay type: cell-based; details: read-out: HPIV3 IC50
[4] = test system: Influenza A/swine/Rachaburi/2000 (H1N1); assay: microbe, parasite or virus in culture; assay type: cell-based, Influenza A virus
Nipah virus [5] = assay: microbe, parasite or virus in culture; assay type: cell-based; details: Henipavirus nipahense
IL-8 = assay type: cell-based, African Green Monkey
influenza A (H1N1) virus = details: cited from earlier work
in vitro [6] = details: African green monkey
in vitro [7] = details: human
TNF-α = assay type: cell-based, African Green Monkey
Henipavirus = details: cited from earlier work
Nipah virus [8] = details: hamster, in vivo; cited from earlier work
[9] = Henipavirus nipahense, HEK-293T, 48 h
[10] = Vesicular stomatitis virus, HEK-293T, 48 h
[11] = Human respirovirus 3, HEK-293T, 24 h
[12] = 1 h, read-out: NiV IC50, co-infection (Co)
[13] = 1 h, read-out: NiV IC50, post-infection (Post)
[14] = 1 h, read-out: NiV IC50, pre-infection (Pre)
[15] = read-out: NiV IC50, cell pre-incubation (Cells)

Molecule	IC50 (Nipah virus [1]; Henipavirus nipahense, Vero)	IC50 (Hendra virus; Henipavirus hendraense, Vero)	IC50 (pseudotyped Nipah (pNiV); [9])	IC50 ([2]; Hendra virus, HEK-293T, 48 h)	IC50 (VSV (pVSV); [10])	IC50 [3, 11]	Influenza IC50 [4]	inhibition of influenza (H1N1) virus, in words [4]	IC50 (Nipah virus [5]; [12])	IC50 (Nipah virus [5]; [13])	IC50 (Nipah virus [5]; [14])	IC50 (Nipah virus [5]; [15])	IL-8 expression, fold change (IL-8)	CC50 (in vitro [6])	CC50 (in vitro [7])	TNF-α expression, fold change (TNF-α)	also measured
CN(C)c1ccc(C(=C2C=CC(=[N+](C)C)C=C2)c2ccc(N(C)C)cc2)cc1 [Gentian Violet, gentian violet]	525 nM	2680 nM	61 nM	0.3 nM	268 nM	860 nM	DNC^a	did not observe clear inhibition	4980 nM	3950 nM	7380 nM	587 nM	two fold	5860 nM	2830 nM	–	residual viable count of influenza virus, 30 min (influenza A (H1N1) virus): below three logs; residual viable count of influenza virus, 60 min (influenza A (H1N1) virus): below five logs
CN1C(=O)[C@]23CC4=CC=C[C@H](O)[C@H]4N2C(=O)[C@@]1(CO)SS3 [Gliotoxin, gliotoxin]	149 nM	579 nM	100 nM	366 nM	232 nM	527 nM	–	dose-dependant inhibition	468 nM	610 nM	1170 nM	487 nM	two fold	4900 nM	1610 nM	suppressed	IC50 ([4]; Influenza A virus, H1N1, Vero, in Sus scrofa, 24 h, read-out: Influenza IC50): 13800 nM
NC(=O)c1ncn([C@@H]2O[C@H](CO)[C@@H](O)[C@H]2O)n1 [Ribavirin, ribavirin]	3900 nM	2240 nM	–	–	–	–	–	–	–	–	–	–	–	150000 nM	–	–	–
CCN(CC)CCCC(C)Nc1ccnc2cc(Cl)ccc12 (centres unmarked) [chloroquine]	–	–	–	–	–	–	–	–	–	–	–	–	–	–	–	–	anti Henipavirus effects in vivo (Henipavirus): no anti Henipavirus effects
brilliant green	–	–	–	–	–	–	DNC^a	did not observe antiviral efficacy	–	–	–	–	20 fold	–	–	15 fold	IC50 (Nipah virus [1]): 218 nM; IC50 (Hendra virus): 778 nM; IC50 (pseudotyped Nipah (pNiV)): 42 nM; IC50 [2]: 34 nM; IC50 (VSV (pVSV)): 15 nM; IC50 [3]: 248 nM; CC50 (Vero cells): 4670 nM; CC50 (293T cells): 861 nM
poly(I)-poly(C12U)	–	–	–	–	–	–	–	–	–	–	–	–	–	–	–	–	prevention of mortality (Nipah virus [8]): five of six animals
